According to patent publication EP1222163B1, “2'-SUBSTITUTED 1,1'-BIPHENYL-2-CARBONAMIDES, METHOD FOR THE PRODUCTION THEREOF, USE THEREOF AS A MEDICAMENT AND PHARMACEUTICAL PREPARATIONS CONTAINING SAID COMPOUNDS” (Sanofi-Aventis Deutschland GmbH, priority 1999, dated 2001):
pIC50: −log10 of the molar value.

Target: T1, Kv1.5-Kanäle aus dem Menschen (Homo sapiens, UniProt P22460)
T1 construct: expressed in transfected cells; host or cells: Xenopus laevis oocytes injected with in vitro synthesised Kv1.5-coding RNA
T1 sequence (P22460 whole entry): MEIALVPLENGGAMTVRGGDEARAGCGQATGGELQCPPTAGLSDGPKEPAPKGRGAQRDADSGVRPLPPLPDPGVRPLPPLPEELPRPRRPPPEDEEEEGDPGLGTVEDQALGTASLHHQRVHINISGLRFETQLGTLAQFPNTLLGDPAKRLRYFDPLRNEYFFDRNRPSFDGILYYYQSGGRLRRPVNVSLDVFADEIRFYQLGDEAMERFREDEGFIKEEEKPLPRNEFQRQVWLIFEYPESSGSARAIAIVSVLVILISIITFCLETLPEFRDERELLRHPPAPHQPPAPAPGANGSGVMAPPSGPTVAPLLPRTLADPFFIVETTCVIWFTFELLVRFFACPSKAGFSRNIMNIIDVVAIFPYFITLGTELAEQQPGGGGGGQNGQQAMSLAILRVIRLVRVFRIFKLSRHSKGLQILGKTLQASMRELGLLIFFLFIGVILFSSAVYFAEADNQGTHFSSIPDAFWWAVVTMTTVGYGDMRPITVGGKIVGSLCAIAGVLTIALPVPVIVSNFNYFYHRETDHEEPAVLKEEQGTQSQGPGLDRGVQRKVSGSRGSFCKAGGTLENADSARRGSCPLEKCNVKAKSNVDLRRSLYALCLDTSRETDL
Assay: Kv1.5 currents in Xenopus oocytes, two-microelectrode voltage clamp
Type: cell-based
From the text: Kv1.5-Kanäle aus dem Menschen wurden in Xenopus Oozyten expremiert. Hierfür wurden zuerst Oozyten aus Xenopus laevis isoliert und defollikuliert. Anschließend wurde in diese Oozyten in vitro synthetisierte Kv1.5 kodierende RNA injiziert. Nach 1 - 7 Tagen Kv1.5-Proteinexpression wurden an den Oozyten mit der Zwei-Mikroelektroden Voltage-Clamp Technik Kv1.5-Ströme gemessen. Die Kv1.5-Kanäle wurden hierbei in der Regel mit 500 ms dauernden Spannungssprüngen auf 0 mV und 40 mV aktiviert. Das Bad wurde mit einer Lösung der nachfolgenden Zusammensetzung durchspült: NaCl 96 mM, KCl 2 mM, CaCl2 1,8 mM, MgCl2 1 mM, HEPES 5 mM (titriert mit NaOH auf pH 7,4). Diese Experimente wurden bei Raumtemperatur durchgeführt. Zur Datenerhebung und Analyse wurden eingesetzt: Geneclamp Verstärker (Axon Instruments, Foster City, USA) und MacLab D/A-Umwandler und Software (ADInstruments, Castle Hill, Australia). Die erfindungsgemäßen Substanzen wurden getestet, indem sie in unterschiedlichen Konzentrationen der Badlösung zugefügt wurden. Die Effekte der Substanzen wurden als prozentuale Inhibition des Kv1.5-Kontrollstromes berechnet, der erhalten wurde, wenn der Lösung keine Substanz zugesetzt wurde. Die Daten wurden anschließend mit der Hill-Gleichung extrapoliert, um die Hemmkonzentrationen IC50 für die jeweiligen Substanzen zu bestimmen.

pIC50: 4.99
Compound: NC(=O)[C@H](Cc1ccccc1)NC(=O)c1ccccc1-c1ccccc1CNS(=O)(=O)c1cccc2cccnc12 [Beispiel 12 l]
